The molecules below were run against PPAR-alpha (Mesocricetus auratus) (assay: Effective concentration against hamster PPAR-alpha in Gal4 transactivation assay).

| Compound | EC50 |
| --- | --- |
| CC(C)[C@@]1(C(=O)O)Cc2cc(OCCOc3ccc(OC(F)(F)F)cc3Cl)ccc2O1 [(R)-5-[2-(2-Chloro-4-trifluoromethoxy-phenoxy)-ethoxy]-2-isopropyl-2,3-dihydro-benzofuran-2-carboxylic acid] | 370 nM |
| CCC1(C(=O)O)Cc2cc(OCCCOc3ccc(OCC(F)(F)F)cc3Cl)ccc2O1 (centres undefined) [5-{3-[2-Chloro-4-(2,2,2-trifluoro-ethoxy)-phenoxy]-propoxy}-2-ethyl-2,3-dihydro-benzofuran-2-carboxylic acid] | 402 nM |
| CCC1(C(=O)O)Cc2cc(OCCCOc3ccc(C(C)(C)C)cc3Cl)ccc2O1 (centres undefined) [5-[3-(4-tert-Butyl-2-chloro-phenoxy)-propoxy]-2-ethyl-2,3-dihydro-benzofuran-2-carboxylic acid] | 280 nM |
| CC(C)[C@@]1(C(=O)O)Cc2cc(OCCCOc3cc(C(F)(F)F)ccc3Cl)ccc2O1 [(R)-5-[3-(2-Chloro-5-trifluoromethyl-phenoxy)-propoxy]-2-isopropyl-2,3-dihydro-benzofuran-2-carboxylic acid] | 420 nM |

— BindingDB's records for doi:10.1021/jm050373g (Merck Research Laboratories, 2005)
